The results in this text go back to patent publication US20080114007A1 (priority 2006, published 2008).

One test deals with CSF-1R (Homo sapiens, UniProt P07333). Nature of the test: Peptide (non-phosphorylated) assay, fluorescence polarization competition immunoassay. It is filed as biochemical. The following applies: 0.7 nM CSF-1R, 308 μM SYEGNSYTFIDPTQ peptide, 1 mM ATP, 80 min; mean of at least three determinations; read-out: c-fms Peptide IC50. In short, it runs like this: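 Human CSF-1R kinase reaction started with ATP and run 80 min at room temperature, then stopped with EDTA. Phosphopeptide detected by fluorescence polarization competition using anti-phosphotyrosine antibody and PTK green tracer after 30 min. Controls used 4% DMSO, with EDTA added before reaction start for positive controls.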
Chain of CSF-1R (P07333 20-972): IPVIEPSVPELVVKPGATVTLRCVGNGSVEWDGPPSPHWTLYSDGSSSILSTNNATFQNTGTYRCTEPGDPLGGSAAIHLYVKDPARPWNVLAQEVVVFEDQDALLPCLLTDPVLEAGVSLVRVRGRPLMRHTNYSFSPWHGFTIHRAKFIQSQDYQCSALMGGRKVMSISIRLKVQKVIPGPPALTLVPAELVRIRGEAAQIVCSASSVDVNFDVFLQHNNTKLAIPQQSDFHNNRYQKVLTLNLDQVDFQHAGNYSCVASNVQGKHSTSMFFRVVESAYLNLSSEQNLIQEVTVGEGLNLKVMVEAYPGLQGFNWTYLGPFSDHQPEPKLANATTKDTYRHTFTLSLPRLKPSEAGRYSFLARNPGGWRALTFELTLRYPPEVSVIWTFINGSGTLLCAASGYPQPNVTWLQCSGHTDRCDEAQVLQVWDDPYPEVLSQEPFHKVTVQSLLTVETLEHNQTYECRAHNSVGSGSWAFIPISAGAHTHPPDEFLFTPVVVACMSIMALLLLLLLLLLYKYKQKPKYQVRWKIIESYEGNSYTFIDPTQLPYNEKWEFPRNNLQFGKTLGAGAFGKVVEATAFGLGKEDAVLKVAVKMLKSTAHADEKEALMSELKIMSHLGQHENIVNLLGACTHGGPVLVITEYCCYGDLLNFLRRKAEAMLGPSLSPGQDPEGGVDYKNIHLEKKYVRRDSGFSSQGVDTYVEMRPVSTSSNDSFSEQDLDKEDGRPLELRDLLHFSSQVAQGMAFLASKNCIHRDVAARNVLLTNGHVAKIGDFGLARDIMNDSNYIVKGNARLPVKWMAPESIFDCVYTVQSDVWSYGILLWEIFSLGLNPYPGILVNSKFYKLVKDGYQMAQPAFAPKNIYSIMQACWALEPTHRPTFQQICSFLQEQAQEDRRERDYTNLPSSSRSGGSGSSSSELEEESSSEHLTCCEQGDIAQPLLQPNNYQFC
(In general: In fluorescence polarisation assays a small probe gives low polarisation when free and higher when bound to something large.)
As usually defined, the IC50 is the midpoint of a concentration-inhibition curve. With `CCN1CCC(c2ccc(Nc3ncc4c(=O)c(C(=O)NOC)cn(-c5ccc6c(c5)CCC6)c4n3)cc2)CC1` [Cpd 155, 2-[4-(1-ethyl-piperidin-4-yl)-phenylamino]-8-indan-5-yl-5-oxo-5,8-dihydro-pyrido[2,3-d]pyrimidine-6-carboxylic acid methoxy-amide], the half-inhibitory concentration (IC50) was 0.12 nM.
`CONC(=O)c1cn(-c2ccc3c(c2)CCC3)c2nc(Nc3ccc(C4CCN(CC(F)(F)F)CC4)cc3)ncc2c1=O` [Cpd 292, 8-indan-5-yl-5-oxo-2-{4-[1-(2,2,2-trifluoro-ethyl)-piperidin-4-yl]-phenylamino}-5,8-dihydro-pyrido[2,3-d]pyrimidine-6-carboxylic acid methoxy-amide]: the IC50 is 6 nM.
Still for that read-out and setting: the same measure for `CONC(=O)c1cn(-c2ccc(OC(F)(F)F)cc2)c2nc(Nc3ccc(C4CCN(C)CC4)cc3)ncc2c1=O` [Cpd 159, 2-[4-(1-methylpiperidin-4-yl)-phenylamino]-5-oxo-8-(4-trifluoromethoxyphenyl)-5,8-dihydropyrido[2,3-d]pyrimidine-6-carboxylic acid methoxy-amide]: 0.66 nM.
Same read-out and setting: in the case of `CCOC(=O)CN1CCC(c2ccc(Nc3ncc4c(=O)c(C(=O)NOC)cn(-c5ccc6c(c5)CCC6)c4n3)cc2)CC1` [Cpd 218, {4-[4-(8-indan-5-yl-6-methoxycarbamoyl-5-oxo-5,8-dihydro-pyrido[2,3-d]pyrimidin-2-ylamino)-phenyl]-piperidin-1-yl}-acetic acid ethyl ester] it was 1.2 nM; in that of `CONC(=O)c1cn(C2CCCC2)c2nc(Nc3ccc(CCN4CCCC4)cc3)ncc2c1=O` [Cpd 39, 8-cyclopentyl-5-oxo-2-[4-(2-pyrrolidin-1-yl-ethyl)-phenylamino]-5,8-dihydro-pyrido[2,3-d]pyrimidine-6-carboxylic acid methoxy-amide], 1.1 nM.
The same measure, in the same setting: in the case of `CONC(=O)c1cn(-c2ccc3c(c2)CCC3)c2nc(Nc3ccc(CCN4CCN(CC(=O)O)CC4)cc3)ncc2c1=O` [Cpd 147, (4-{2-[4-(8-indan-5-yl-6-methoxycarbamoyl-5-oxo-5,8-dihydro-pyrido[2,3-d]pyrimidin-2-ylamino)-phenyl]-ethyl}-piperazin-1-yl)-acetic acid] it was 0.94 nM.
Consider `CONC(=O)c1cn(-c2ccc3c(c2)CCC3)c2nc(Nc3ccc(CCN4CCN(C)CC4)cc3)ncc2c1=O` [Cpd 61, 8-indan-5-yl-2-{4-[2-(4-methyl-piperazin-1-yl)-ethyl]-phenylamino}-5-oxo-5,8-dihydro-pyrido[2,3-d]pyrimidine-6-carboxylic acid methoxy-amide], for which the IC50 stood at 0.68 nM.
As to `CCONC(=O)c1cn(-c2ccc(C)c(C)c2)c2nc(Nc3ccc(CCN4CCN(C)CC4)cc3)ncc2c1=O` [Cpd 53, 8-(3,4-dimethyl-phenyl)-2-{4-[2-(4-methyl-piperazin-1-yl)-ethyl]-phenylamino}-5-oxo-5,8-dihydro-pyrido[2,3-d]pyrimidine-6-carboxylic acid ethoxy-amide], the IC50 is 0.5 nM.
The same measure, in the same setting: in the case of `CCc1ccc(-n2cc(C(=O)NOC)c(=O)c3cnc(Nc4ccc(OCCOC)c(OCCOC)c4)nc32)cc1` [Cpd 308, 2-[3,4-bis-(2-methoxy-ethoxy)-phenylamino]-8-(4-ethyl-phenyl)-5-oxo-5,8-dihydro-pyrido[2,3-d]pyrimidine-6-carboxylic acid methoxy-amide] it was 0.9 nM.
Turning to `CCONC(=O)c1cn(C2CCCCC2)c2nc(Nc3ccc(C4CCNCC4)cc3)ncc2c1=O` [Cpd 27, 8-cyclohexyl-5-oxo-2-(4-piperidin-4-yl-phenylamino)-5,8-dihydro-pyrido[2,3-d]pyrimidine-6-carboxylic acid ethoxy-amide], the IC50 worked out at 1.6 nM.
Same read-out and setting: the same measure for `CCc1ccc(-n2cc(C(=O)NOC(CC)CC)c(=O)c3cnc(Nc4ccc(CCN5CCN(C)CC5)cc4)nc32)cc1` [Cpd 93, 8-(4-ethyl-phenyl)-2-{4-[2-(4-methyl-piperazin-1-yl)-ethyl]-phenylamino}-5-oxo-5,8-dihydro-pyrido[2,3-d]pyrimidine-6-carboxylic acid (1-ethyl-propoxy)-amide]: 4.9 nM; for `CONC(=O)c1cn(-c2ccc3c(c2)CCC3)c2nc(Nc3ccc(Cn4cncn4)cc3)ncc2c1=O` [Cpd 283, 8-indan-5-yl-5-oxo-2-(4-[1,2,4]triazol-1-ylmethyl-phenylamino)-5,8-dihydro-pyrido[2,3-d]pyrimidine-6-carboxylic acid methoxy-amide]: 0.9 nM.
Same read-out and setting: the same measure for `COCCc1ccc(Nc2ncc3c(=O)c(C(=O)NOC)cn(-c4ccc5c(c4)CCC5)c3n2)cc1` [Cpd 81, 8-indan-5-yl-2-[4-(2-methoxy-ethyl)-phenylamino]-5-oxo-5,8-dihydro-pyrido[2,3-d]pyrimidine-6-carboxylic acid methoxy-amide]: 3 nM.
With `CONC(=O)c1cn(-c2ccc3c(c2)CCC3)c2nc(Nc3cccc(S(=O)(=O)N(C)C)c3)ncc2c1=O` [Cpd 129, 2-(3-dimethylsulfamoyl-phenylamino)-8-indan-5-yl-5-oxo-5,8-dihydro-pyrido[2,3-d]pyrimidine-6-carboxylic acid methoxy-amide], the 50% inhibitory concentration (IC50) stood at 2.3 nM.
With `CCc1ccc(-n2cc(C(=O)NOC(C)C)c(=O)c3cnc(Nc4ccc(C5CCN(C(C)=O)CC5)cc4)nc32)cc1` [Cpd 59, 2-[4-(1-acetyl-piperidin-4-yl)-phenylamino]-8-(4-ethyl-phenyl)-5-oxo-5,8-dihydro-pyrido[2,3-d]pyrimidine-6-carboxylic acid isopropoxy-amide], the IC50 turned out to be 4.5 nM.
For the compound `CCc1ccc(-n2cc(C(=O)NOC)c(=O)c3cnc(Nc4cccc(N5CCOCC5)c4)nc32)cc1` [Cpd 320, 8-(4-ethyl-phenyl)-2-(3-morpholin-4-yl-phenylamino)-5-oxo-5,8-dihydro-pyrido[2,3-d]pyrimidine-6-carboxylic acid methoxy-amide], the IC50 was determined as 0.5 nM.
As for `CONC(=O)c1cn(C2CCCCC2)c2nc(Nc3ccc(CN4CCCC4=O)cc3)ncc2c1=O` [Cpd 12, 8-cyclohexyl-5-oxo-2-[4-(2-oxo-pyrrolidin-1-ylmethyl)-phenylamino]-5,8-dihydro-pyrido[2,3-d]pyrimidine-6-carboxylic acid methoxy-amide], the half-inhibitory concentration (IC50) was found to be 1.3 nM.
Take `CCN1CC[C@H](Oc2cccc(Nc3ncc4c(=O)c(C(=O)NOC)cn(-c5ccc6c(c5)CCC6)c4n3)c2)C1` [Cpd 263, 2-{3-[(3S)-(1-ethyl-pyrrolidin-3-yloxy)]-phenylamino}-8-indan-5-yl-5-oxo-5,8-dihydro-pyrido[2,3-d]pyrimidine-6-carboxylic acid methoxy-amide]: the half-inhibitory concentration (IC50) stood at 0.56 nM.
With `CCCN1CCC(c2ccc(Nc3ncc4c(=O)c(C(=O)NOC)cn(-c5ccc6c(c5)CCC6)c4n3)cc2)CC1` [Cpd 298, 8-indan-5-yl-5-oxo-2-[4-(1-propyl-piperidin-4-yl)-phenylamino]-5,8-dihydro-pyrido[2,3-d]pyrimidine-6-carboxylic acid methoxy-amide], the IC50 amounted to 0.4 nM.
Same read-out and setting: the same measure for `CONC(=O)c1cn(-c2ccc(OC(F)(F)F)cc2)c2nc(Nc3ccc(CCc4n[nH]c(C)n4)cc3)ncc2c1=O` [Cpd 191, 2-{4-[2-(5-methyl-1H-[1,2,4]triazol-3-yl)-ethyl]-phenylamino}-5-oxo-8-(4-trifluoromethoxyphenyl)-5,8-dihydropyrido[2,3-d]pyrimidine-6-carboxylic acid methoxy-amide]: 5.6 nM.
Take `CCc1ccc(-n2cc(C(=O)NOC)c(=O)c3cnc(Nc4ccc(-c5ccc(N(C)C)cc5)cc4)nc32)cc1` [Cpd 306, 2-(4′-dimethylamino-biphenyl-4-ylamino)-8-(4-ethyl-phenyl)-5-oxo-5,8-dihydro-pyrido[2,3-d]pyrimidine-6-carboxylic acid methoxy-amide]: the IC50 amounted to 14 nM.
Still for that read-out and setting: in the case of `CCc1ccc(-n2cc(C(=O)NOC(C)C)c(=O)c3cnc(Nc4ccc(C5CCN(CCCO)CC5)cc4)nc32)cc1` [Cpd 187, 8-(4-ethyl-phenyl)-2-{4-[1-(3-hydroxy-propyl)-piperidin-4-yl]-phenylamino}-5-oxo-5,8-dihydro-pyrido[2,3-d]pyrimidine-6-carboxylic acid isopropoxy-amide] it was 0.7 nM; in that of `CONC(=O)c1cn(-c2ccc3c(c2)CCC3)c2nc(Nc3ccc(C[C@H]4COC(=O)N4)cc3)ncc2c1=O` [Cpd 67, (S)-8-indan-5-yl-5-oxo-2-[4-(2-oxo-oxazolidin-4-ylmethyl)-phenylamino]-5,8-dihydro-pyrido[2,3-d]pyrimidine-6-carboxylic acid methoxy-amide], 1 nM; in that of `CONC(=O)c1cn(-c2ccc3c(c2)CCC3)c2nc(Nc3ccc(CCN4CC[C@H](O)C4)cc3)ncc2c1=O` [Cpd 255, 2-(4-{2-[(3S)-(3-hydroxy-pyrrolidin-1-yl)]-ethyl}-phenylamino)-8-indan-5-yl-5-oxo-5,8-dihydro-pyrido[2,3-d]pyrimidine-6-carboxylic acid methoxy-amide], 0.67 nM.
Same read-out and setting: the same measure for `CN1CCC(c2ccc(Nc3ncc4c(=O)c(C(=O)O)cn(-c5ccc6c(c5)CCC6)c4n3)cc2)CC1` [Cpd 222, 8-indan-5-yl-2-[4-(1-methyl-piperidin-4-yl)-phenylamino]-5-oxo-5,8-dihydro-pyrido[2,3-d]pyrimidine-6-carboxylic acid]: 29 nM.
Regarding `CCc1ccc(-n2cc(C(=O)NOC)c(=O)c3cnc(Nc4ccc(CCN5CC(F)(F)C5)cc4)nc32)cc1` [Cpd 269, 2-{4-[2-(3,3-difluoro-azetidin-1-yl)-ethyl]-phenylamino}-8-(4-ethyl-phenyl)-5-oxo-5,8-dihydro-pyrido[2,3-d]pyrimidine-6-carboxylic acid methoxy-amide], the IC50 came out at 1.5 nM.

The same test, now with this note: c-fms Peptide IC50, 0.7 nM CSF-1R, 308 μM SYEGNSYTFIDPTQ peptide, 1 mM ATP, 80 min; mean of at least three determinations.
As to `CCc1ccc(-n2cc(C(=O)NOC)c(=O)c3cnc(Nc4ccc(C5CCN(C)CC5)cc4)nc32)cc1` [Cpd 156, 8-(4-ethyl-phenyl)-2-[4-(1-methyl-piperidin-4-yl)-phenylamino]-5-oxo-5,8-dihydro-pyrido[2,3-d]pyrimidine-6-carboxylic acid methoxy-amide], the IC50 was 0.3 nM.
